Assay results from paper PMC9490236, “Accurate de novo design of membrane-traversing macrocycles” (Cell, 2022).
Where a SMILES comes first, the peptide text is derived from it. [ ]: non-standard residue; d: D form. NMeF = CN[C@@H](Cc1ccccc1)C(=O)O; dNMeF = CN[C@H](Cc1ccccc1)C(=O)O; NMeL = CN[C@@H](CC(C)C)C(=O)O; dNMeL = CN[C@H](CC(C)C)C(=O)O; dNMeV = CN[C@@H](C(=O)O)C(C)C; NMeV = CN[C@H](C(=O)O)C(C)C; NMeA = CN[C@@H](C)C(=O)O

Columns and labels:
in vitro = conditions: PAMPA, PAMPA_Papp_Avg
[1] = PAMPA

Row | Compound | Papp (in vitro) [×10⁻⁶ cm/s] | PAMPA_R1 [1] | PAMPA_R3 [1]
1 | CC[C@H](C)[C@@H]1NC(=O)[C@H](C(C)C)N(C)C(=O)[C@H]2CCCN2C(=O)[C@H]([C@@H](C)CC)NC(=O)[C@@H](CC(C)C)N(C)C(=O)[C@@H](C)NC(=O)[C@@H]2CCCN2C(=O)[C@H]2CCCN2C(=O)[C@H](CC(C)C)NC(=O)[C@@H](Cc2ccccc2)NC(=O)[C@H](CC(C)C)NC(=O)[C@H]2CCCN2C1=O [Design D12.3, DPRO *VAL ILE DPRO LEU DPHE LEU DPRO PRO DALA *DLEU ILE] (cyclo([dA][dNMeL]I[dP][NMeV]I[dP]L[dF]L[dP]P)) | 0.789 | 7.65E-07 | 9.01E-07
2 | CC(C)C[C@H]1C(=O)N2CCC[C@@H]2C(=O)N[C@@H](Cc2ccccc2)C(=O)N2CCC[C@H]2C(=O)N[C@H](C(C)C)C(=O)N[C@H](Cc2ccccc2)C(=O)N1C (single isomer, unassigned) [Design D6.9.p1, DVAL DPHE *LEU DPRO PHE PRO] | 5.29 | 4.01e-06 cm/s | 6.97e-06 cm/s
3 | CC[C@H](C)[C@@H]1NC(=O)[C@H](CC(C)C)N(C)C(=O)[C@H]2CCCN2C(=O)[C@@H](CC(C)C)NC(=O)[C@H](CC(C)C)NC(=O)[C@@H](CC(C)C)N(C)C(=O)[C@@H]2CCCN2C1=O [Design D7.2, DLEU DPRO *LEU ILE PRO *DLEU LEU] (cyclo(IP[dNMeL]L[dL][dP][NMeL])) | 11.6 | 1.48e-05 cm/s | 
4 | CC[C@@H](C)[C@H]1NC(=O)[C@@H]2CCCN2C(=O)[C@@H](CC(C)C)N(C)C(=O)[C@@H](C(C)C)NC(=O)[C@@H]2CCCN2C(=O)[C@@H](CC(C)C)N(C)C(=O)[C@H](C)N(C)C(=O)[C@@H](C)NC1=O [Design D8.18, DILE DALA *ALA *DLEU PRO DVAL *DLEU PRO] (cyclo([NMeA][dNMeL]P[dV][dNMeL]P[dI][dA])) | 1.04 | 1.31E-06 | 9.35E-07
5 | CC(C)C[C@@H]1C(=O)N[C@H](C)C(=O)N[C@@H](C(C)C)C(=O)N2CCC[C@@H]2C(=O)N[C@H](C(C)C)C(=O)N2CCC[C@@H]2C(=O)N2CCC[C@H]2C(=O)N[C@H](C)C(=O)N(C)[C@H](CC(C)C)C(=O)N1C [Design D9.29, DVAL DPRO PRO DALA *DLEU *DLEU DALA VAL DPRO] (cyclo([dA][dNMeL][dNMeL][dA]V[dP][dV][dP]P)) | 1.51 | 1.96E-06 | 1.19E-06
6 | C[C@H]1NC(=O)[C@@H](Cc2ccccc2)NC(=O)[C@H](Cc2ccccc2)N(C)C(=O)[C@H](Cc2ccccc2)N(C)C(=O)[C@@H](Cc2ccccc2)NC(=O)[C@H]2CCCN2C(=O)CNC(=O)[C@@H](C)NC(=O)[C@@H]2CCCN2C(=O)[C@@H](Cc2ccccc2)NC1=O [Design D10.62, DALA GLY DPRO DPHE *PHE *PHE DPHE DALA DPHE PRO] (cyclo(G[dP][dF][NMeF][NMeF][dF][dA][dF]P[dA])) | 4.23 | 4.48E-06 | 4.48E-06
7 | CC(C)[C@H]1NC(=O)[C@@H]2CCCN2C(=O)[C@@H](C)NC(=O)[C@@H](Cc2ccccc2)NC(=O)[C@@H]2CCCN2C(=O)[C@H](Cc2ccccc2)NC1=O [Design D6.7, DPHE DALA PRO DVAL PHE PRO] (cyclo(FP[dF][dA]P[dV])) | 0.424 | 6.27e-07 cm/s | 3.67e-07 cm/s
8 | CC(C)C[C@@H]1C(=O)N[C@H](C)C(=O)N(C)[C@H](CC(C)C)C(=O)N2CCC[C@@H]2C(=O)N[C@H](CC(C)C)C(=O)N[C@@H](C)C(=O)N[C@H](CC(C)C)C(=O)N2CCC[C@@H]2C(=O)N1C [Design D8.25, DLEU DPRO *DLEU DALA *DLEU DPRO DLEU ALA] (cyclo(A[dL][dP][dNMeL][dA][dNMeL][dP][dL])) | 0.824 | 7.42E-07 | 9.32E-07
9 | CC(C)C[C@@H]1C(=O)N(C)[C@H](CC(C)C)C(=O)N2CCC[C@H]2C(=O)N[C@H](CC(C)C)C(=O)N2CCC[C@@H]2C(=O)N2CCC[C@@H]2C(=O)N(C)[C@H](CC(C)C)C(=O)N[C@H](Cc2ccccc2)C(=O)N[C@@H](C)C(=O)N1C [Design D9.18, ALA *DLEU *DLEU PRO DLEU DPRO DPRO *DLEU DPHE] (cyclo(A[dNMeL][dNMeL]P[dL][dP][dP][dNMeL][dF])) | 1.76 | 1.88E-06 | 1.97E-06
10 | CC[C@@H](C)[C@H]1NC(=O)[C@@H](Cc2ccccc2)NC(=O)[C@@H]2CCCN2C(=O)[C@@H]([C@H](C)CC)NC(=O)[C@@H](Cc2ccccc2)NC(=O)[C@@H]2CCCN2C1=O [Design D6.1, DILE PRO DPHE DILE PRO DPHE] (cyclo(P[dF][dI]P[dF][dI])) | 3.34 | 3.78e-06 cm/s | 3.92e-06 cm/s
11 | CC[C@@H](C)[C@H]1NC(=O)[C@H]2CCCN2C(=O)[C@H]([C@@H](C)CC)NC(=O)[C@H](CC(C)C)N(C)C(=O)[C@H]2CCCN2C(=O)[C@@H]2CCCN2C(=O)[C@H](Cc2ccccc2)N(C)C(=O)[C@H](Cc2ccccc2)NC(=O)[C@H]([C@@H](C)CC)NC1=O [Design D9.13, DPRO DILE ILE PHE *PHE PRO DPRO *LEU ILE] (cyclo(F[NMeF]P[dP][NMeL]I[dP][dI]I)) | 3.37 | 3.63E-06 | 3.09E-06
12 | CC(C)C[C@@H]1NC(=O)[C@@H](CC(C)C)NC(=O)[C@@H]2CCCN2C(=O)[C@@H](CC(C)C)NC(=O)[C@H](C)N(C)C(=O)[C@H](C)NC(=O)[C@H](CC(C)C)N(C)C(=O)[C@@H]2CCCN2C(=O)[C@H](CC(C)C)NC(=O)[C@H](CC(C)C)N(C)C1=O [Design D10.16, DLEU LEU *LEU LEU PRO *LEU ALA *ALA DLEU PRO] (cyclo(A[NMeA][dL]P[dL]L[NMeL]LP[NMeL])) | 2.27 | 2.30E-06 | 2.32E-06
13 | CC(C)C[C@H]1C(=O)N2CCC[C@@H]2C(=O)N[C@@H](Cc2ccccc2)C(=O)N2CCC[C@H]2C(=O)N(C)[C@H](C(C)C)C(=O)N[C@H](Cc2ccccc2)C(=O)N1C [Design D6.10, *DVAL DPHE *LEU DPRO PHE PRO] (cyclo(FP[dNMeV][dF][NMeL][dP])) | 11.6 | 1.23e-05 cm/s | 1.13e-05 cm/s
14 | CC[C@@H](C)[C@H]1NC(=O)[C@H](Cc2ccccc2)N(C)C(=O)[C@@H](CC(C)C)N(C)C(=O)[C@H](C(C)C)NC(=O)[C@H](C)NC(=O)[C@@H]2CCCN2C(=O)[C@H](CC(C)C)N(C)C(=O)[C@@H](Cc2ccccc2)N(C)C(=O)[C@H](C)N(C)C(=O)[C@H](C)N(C)C1=O [Design D10.56, *DPHE *LEU PRO ALA VAL *DLEU *PHE DILE *ALA *ALA] (cyclo(AV[dNMeL][NMeF][dI][NMeA][NMeA][dNMeF][NMeL]P)) | 9.02 | 9.15E-06 | 8.95E-06
15 | CC[C@@H](C)[C@H]1NC(=O)[C@H](C(C)C)NC(=O)[C@H]2CCCN2C(=O)[C@@H]2CCCN2C(=O)[C@H](CC(C)C)N(C)C(=O)[C@H](C)N(C)C(=O)[C@@H](CC(C)C)N(C)C(=O)[C@H](C)NC(=O)[C@@H](Cc2ccccc2)NC(=O)[C@@H]2CCCN2C1=O [Design D10.25, DPHE ALA *DLEU *ALA *LEU PRO DPRO VAL DILE PRO] (cyclo(A[dNMeL][NMeA][NMeL]P[dP]V[dI]P[dF])) | 0.452 | 3.97E-07 | 4.39E-07
